The results in this text go back to ChEMBL document CHEMBL2429714, “Synthesis and analgesic activity of monoterpenoid-derived 2-aryl-4,4,7-trimethyl-4a,5,8,8a-tetrahydro-4H-benzo[d][1,3]dioxin-8-ols” (Med Chem Res, 2013).

The test system of data set [1] is Mus musculus. The data set is described as follows: Analgesic activity in albino mouse assessed as inhibition of abdominal convulsion at 10 mg/kg, po administered 1 hr prior to acetic acid challenge measured at 5 to 8 mins by acetic acid-induced writhing test relative to control. The settings on record: Abdomen. The class given is functional. In general terms: Writhing tests count abdominal constrictions after an irritant is injected.

Data set [2] has as its system Mus musculus. Description: Analgesic activity in albino mouse assessed as protection against thermal-induced paw licking or jumping behaviour at 10 mg/kg, po administered 1 hr prior to testing by hot plate test relative to control. The class given is functional. In general terms: In hot-plate and tail-flick tests a longer latency is read as antinociception.
Data set [3] deals with Mus musculus. Description: Analgesic activity in po dosed albino mouse assessed as protection against acetic acid-induced writhing administered 1 hr prior to prior to acetic acid challenge measured at 5 to 8 mins. The class given is functional.
The nature of data set [4]: Toxicity in po dosed albino mouse. The class given is organism-based. Conditions: in vivo.

Regarding `CC1=CC[C@@H]2[C@@H](O[C@H](c3ccc(Cl)c(Cl)c3)OC2(C)C)[C@@H]1O`, the inhibition in vivo (as a rule, how much of the control response was suppressed) at 10 mg/kg with Mus musculus [1] came to 14%. The Activity with Mus musculus [2] stood at 36%.

On to `CC1=CC[C@@H]2[C@@H](O[C@H](c3ccc(Br)cc3)OC2(C)C)[C@@H]1O`, for which the inhibition in vivo at 10 mg/kg with Mus musculus [1] stood at 33%. Besides, in the data set with Mus musculus [2], the Activity is given as 33%.

For the compound `O=C([O-])Cc1ccccc1Nc1c(Cl)cccc1Cl.[Na+]` [DICLOFENAC SODIUM], in the data set on Mus musculus [1], the inhibition in vivo at 10 mg/kg is 90%. Also, the ED50 (in general, the dose that gives a 50% effect, or the effect in half of the subjects) with Mus musculus [3] was determined as 5 mg/kg. Besides, in the data set with Mus musculus [2], the Activity is reported as 64%.

Turning to `CC1=CC[C@@H]2[C@@H](O[C@H](c3ccc(Cl)cc3)OC2(C)C)[C@@H]1O`, the inhibition in vivo at 10 mg/kg in the data set on Mus musculus [1] came to 88%. For the same compound, the ED50 with Mus musculus [3] is 4.5 mg/kg. The Activity in the data set with Mus musculus [2] was 8%.

Consider `CC1=CC[C@@H]2[C@@H](O[C@H](c3ccc([N+](=O)[O-])cc3)OC2(C)C)[C@@H]1O`, for which the inhibition in vivo at 10 mg/kg with Mus musculus [1] amounted to 65%. In the data set on Mus musculus [2], the Activity is given as 84%.

In the case of `CC1=CC[C@@H]2[C@@H](O[C@H](c3ccc(F)cc3)OC2(C)C)[C@@H]1O`, in the data set on Mus musculus [1], the inhibition in vivo at 10 mg/kg worked out at 40%. Moreover, the median lethal dose (LD50) (commonly the dose at which mortality reaches 50%) in data set [4] amounted to 1000 mg/kg. Also, the Activity with Mus musculus [2] was found to be 0%.

On to `CC1=CC[C@@H]2[C@@H](O[C@H](c3ccc(C(F)(F)F)cc3)OC2(C)C)[C@@H]1O`, for which the inhibition in vivo at 10 mg/kg in the data set with Mus musculus [1] stood at 52%. The Activity in the data set on Mus musculus [2] is on record as 30%.

As to `CC1=CC[C@@H]2[C@@H](O[C@H](c3cccc(Cl)c3)OC2(C)C)[C@@H]1O`, the inhibition in vivo at 10 mg/kg in the data set on Mus musculus [1] is 27%. In the data set with Mus musculus [2], the Activity is given as 36%.

On to `CC1=CC[C@@H]2[C@@H](O[C@H](c3cccc(F)c3)OC2(C)C)[C@@H]1O`, for which the inhibition in vivo at 10 mg/kg in the data set on Mus musculus [1] was determined as 40%. In addition, the Activity in the data set on Mus musculus [2] is 0%.

`CC1=CC[C@@H]2[C@@H](O[C@H](c3cccc(Cl)c3)CC2(C)O)[C@@H]1O` (mixture of isomers): in the data set with Mus musculus [1], the inhibition in vivo at 10 mg/kg worked out at 26%. Also, the Activity in the data set with Mus musculus [2] is 14%.
